What was measured:
[1] = biological target: T1, butyrylcholine esterase (BuChE) (Mus musculus, UniProt Q03311); experiment: In vitro assay for choline esterase inhibition (Ellman method), butyrylthiocholine substrate, mouse serum; type: biochemical; conditions: for Ratio AChE/BuChE: selectivity for BuChE inhibition: IC50 (AchE)/IC50 (BuChE); for selectivity to butyrylcholinesterase (BuChE versus AChE inhibitory activity), in words: summary of Tables 1-3
T1 construct: brain homogenate and serum of mouse were used as choline esterase enzyme sources; from tissue; host or cells: mouse serum
T1 sequence (Q03311 30-603): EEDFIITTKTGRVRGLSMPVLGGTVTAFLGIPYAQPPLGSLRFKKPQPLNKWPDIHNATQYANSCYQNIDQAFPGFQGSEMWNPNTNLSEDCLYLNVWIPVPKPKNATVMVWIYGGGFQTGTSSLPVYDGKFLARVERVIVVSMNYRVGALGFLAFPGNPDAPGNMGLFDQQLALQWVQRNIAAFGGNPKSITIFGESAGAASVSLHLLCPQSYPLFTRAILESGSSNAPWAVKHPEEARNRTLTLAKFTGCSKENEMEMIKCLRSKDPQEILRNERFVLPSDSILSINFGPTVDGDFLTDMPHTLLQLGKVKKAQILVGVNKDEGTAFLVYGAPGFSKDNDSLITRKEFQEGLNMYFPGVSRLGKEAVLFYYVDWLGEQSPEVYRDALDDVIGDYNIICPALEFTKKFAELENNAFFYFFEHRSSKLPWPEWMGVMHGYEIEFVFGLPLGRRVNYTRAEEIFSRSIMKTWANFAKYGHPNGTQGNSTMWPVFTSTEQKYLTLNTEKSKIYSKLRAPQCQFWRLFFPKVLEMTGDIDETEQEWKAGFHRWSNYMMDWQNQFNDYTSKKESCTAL
Procedure, shortened: (§1)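 Enzyme sources were mouse brain homogenate for AChE (acetylthiocholine substrate) and mouse serum for BuChE (butyrylthiocholine substrate). Compounds were diluted in DMSO and incubated with substrate and DTNB, and the thiocholine–DTNB product was read at 415 nm (Ellman method). Selectivity was taken as IC50(AChE)/IC50(BuChE).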

[2] = biological target: T2, acetylcholine esterase (AChE) (Mus musculus, UniProt P21836); experiment: In vitro assay for choline esterase inhibition (Ellman method), acetylthiocholine substrate, mouse brain homogenate; type: biochemical
T2 construct: brain homogenate and serum of mouse were used as choline esterase enzyme sources; from tissue; host or cells: mouse brain homogenate
T2 sequence (P21836 32-614): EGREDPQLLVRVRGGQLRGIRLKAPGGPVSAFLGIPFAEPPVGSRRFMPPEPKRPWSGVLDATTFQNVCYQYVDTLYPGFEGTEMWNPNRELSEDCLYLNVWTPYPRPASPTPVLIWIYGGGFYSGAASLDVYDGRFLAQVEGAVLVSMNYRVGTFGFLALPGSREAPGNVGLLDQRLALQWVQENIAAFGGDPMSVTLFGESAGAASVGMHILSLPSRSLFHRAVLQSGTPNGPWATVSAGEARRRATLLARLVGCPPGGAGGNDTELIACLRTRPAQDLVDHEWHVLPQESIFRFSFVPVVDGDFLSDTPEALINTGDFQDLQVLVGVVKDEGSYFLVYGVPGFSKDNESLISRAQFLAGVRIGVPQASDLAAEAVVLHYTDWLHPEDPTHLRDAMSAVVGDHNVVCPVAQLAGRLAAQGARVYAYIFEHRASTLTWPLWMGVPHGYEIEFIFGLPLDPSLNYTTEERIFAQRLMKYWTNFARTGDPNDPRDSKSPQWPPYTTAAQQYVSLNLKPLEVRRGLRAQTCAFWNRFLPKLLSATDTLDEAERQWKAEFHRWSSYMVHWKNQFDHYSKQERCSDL
Procedure, shortened: as §1

Row | Compound | melting point [°C] | other results
1 | O=C(Nc1ccc(-c2ccccc2)cc1)Oc1ccc2c(c1)CCN2Cc1ccccc1 | 175 to 178 | 
2 | O=C(Nc1ccccc1)Oc1ccc2c(c1)CCN2Cc1ccccc1 | 105 to 112 | 
3 | CNC(=O)Oc1ccc2c(c1)CCN2 | 109 to 112 | 
4 | O=C(Nc1ccc(Oc2ccccc2)cc1)Oc1ccc2c(c1)CCN2Cc1ccccc1 | 155 to 160 | 
5 | COc1ccc(NC(=O)Oc2ccc3c(c2)CCN3)cc1 | 220 to 224 | 
6 | COc1ccc(NC(=O)Oc2ccc3c(c2)CCN3)cc1OC | 140 to 144 | 
7 | O=C(NCC1CCCCC1)Oc1ccc2c(c1)CCN2 | 129 to 133 | 
8 | CCCN(CCC)C(=O)C1Cc2cc(OC(=O)Nc3ccc(C(C)C)cc3)ccc2N1Cc1ccccc1 (stereo not shown) | 62 to 66 | 
9 | O=C(Nc1ccc([N+](=O)[O-])cc1)Oc1ccc2c(c1)CCN2Cc1ccccc1 | 225 to 229 | 
10 | CC(C)c1ccc(NC(=O)Oc2ccc3c(c2)CCN3)cc1 | 166 to 170 | 
11 | O=C(Nc1ccc2ccccc2c1)Oc1ccc2c(c1)CCN2Cc1ccccc1 | 161 to 167 | 
12 | COC(=O)c1ccc(CN2CCc3cc(OC(=O)Nc4ccc(C(C)C)cc4)ccc32)cc1 | 149 to 153 | 
13 | CC(C)c1ccc(NC(=O)Oc2ccc3c(c2)CCN3Cc2ccc3ccccc3c2)cc1 | 136 to 140 | 
14 | CC(C)c1ccc(NC(=O)Oc2ccc3c(c2)CCN3Cc2ccco2)cc1 | 168 to 171 | 
15 | COc1cc(CN2CCc3cc(OC(=O)Nc4ccc(C(C)C)cc4)ccc32)ccc1N(C)C | 152 to 153 | 
16 | CC(C)c1ccc(NC(=O)Oc2ccc3c(c2)CCN3Cc2ccc(O)c(Cl)c2)cc1 | 170 to 174 | 
17 | CC(C)c1ccc(NC(=O)Oc2ccc3c(c2)CCN3Cc2cc(N(C)C)c3ccccc3c2)cc1 | 75 to 80 | 
18 | CC(C)c1ccc(NC(=O)Oc2ccc3c(c2)CCN3Cc2cccc3ncccc23)cc1 | 195 to 199 | 
19 | CC(C)c1ccc(NC(=O)Oc2ccc3c(c2)CCN3Cc2ccc3ccccc3n2)cc1 | 150 to 152 | 
20 | CC(C)c1ccc(NC(=O)Oc2ccc3c(c2)CCN3Cc2ccc3cc[nH]c3c2)cc1 | 194 to 196 | 
21 | O=C(Nc1ccc(C2CCCCC2)cc1)Oc1ccc2c(c1)CCN2Cc1ccccc1 | 171 to 174 | 
22 | O=C(Nc1ccncc1)Oc1ccc2c(c1)CCN2Cc1ccccc1 | 132 to 136 | 
23 | CN(CC1CCOCC1)C(=O)Oc1ccc2c(c1)C(C)(C)CN2Cc1ccccn1 [Example 218, N-methyl-O-[1-(2-pyridylmethyl)-3,3-dimethylindolin-5-yl]-N-(4-tetrahydropyranylmethyl)carbamate] |  | IC50 [1]: 0.00066 µM; Ratio AChE/BuChE [1]: 13000; selectivity to butyrylcholinesterase (BuChE versus AChE inhibitory activity), in words [1]: much higher; IC50 [2]: 8.5 µM
24 | CN(CC1CCOCC1)C(=O)Oc1ccc2c(c1)C(C)(C)CN2Cc1cccnc1 [Example 219, N-methyl-O-[1-(3-pyridylmethyl)-3,3-dimethylindolin-5-yl]-N-(4-tetrahydropyranylmethyl)carbamate] |  | IC50 [1]: 0.0012 µM; Ratio AChE/BuChE [1]: 17000; selectivity to butyrylcholinesterase (BuChE versus AChE inhibitory activity), in words [1]: much higher; IC50 [2]: 20 µM
25 | CN(CC1CCOCC1)C(=O)Oc1ccc2c(c1)C(C)(C)CN2Cc1ccncc1 [Example 220, N-methyl-O-[1-(4-pyridylmethyl)-3,3-dimethylindolin-5-yl]-N-(4-tetrahydropyranylmethyl)carbamate] |  | IC50 [1]: 0.0019 µM; Ratio AChE/BuChE [1]: 11000; selectivity to butyrylcholinesterase (BuChE versus AChE inhibitory activity), in words [1]: much higher; IC50 [2]: 21 µM
26 | CN(C)C(=O)Oc1ccc2c(c1)CCN2Cc1ccccc1 [Example 221, N,N-dimethyl-O-(1-benzylindolin-5-yl)carbamate] |  | IC50 [1]: 0.17 µM; Ratio AChE/BuChE [1]: 76; IC50 [2]: 13 µM

From patent publication US8686024B2, “Indoline derivatives” (priority 2009, dated 2014)
